Assays:
EPHA4 = target: T1, EPHA4 (Homo sapiens, UniProt P54764); assay: mobility shift assay; format: biochemical
T1 construct: purchased Carna Biosciences

MAP2K7_Cascade = target: T2, MAP2K7_Cascade (Homo sapiens, UniProt O14733); assay: mobility shift assay; format: biochemical
T2 construct: purchased Carna Biosciences
T2 sequence (O14733 whole entry): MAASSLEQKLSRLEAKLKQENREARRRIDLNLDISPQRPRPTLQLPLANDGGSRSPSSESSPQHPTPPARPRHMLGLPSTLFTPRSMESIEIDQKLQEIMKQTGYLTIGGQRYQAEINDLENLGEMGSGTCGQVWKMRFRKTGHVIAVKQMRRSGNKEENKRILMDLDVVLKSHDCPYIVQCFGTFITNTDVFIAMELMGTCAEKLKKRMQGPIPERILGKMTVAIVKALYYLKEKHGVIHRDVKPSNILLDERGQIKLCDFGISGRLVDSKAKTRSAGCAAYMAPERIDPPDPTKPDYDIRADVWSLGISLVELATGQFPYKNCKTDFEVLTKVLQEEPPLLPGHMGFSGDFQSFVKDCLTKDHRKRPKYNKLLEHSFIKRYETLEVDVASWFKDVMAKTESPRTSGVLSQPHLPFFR

T1 sequence (P54764 20-986): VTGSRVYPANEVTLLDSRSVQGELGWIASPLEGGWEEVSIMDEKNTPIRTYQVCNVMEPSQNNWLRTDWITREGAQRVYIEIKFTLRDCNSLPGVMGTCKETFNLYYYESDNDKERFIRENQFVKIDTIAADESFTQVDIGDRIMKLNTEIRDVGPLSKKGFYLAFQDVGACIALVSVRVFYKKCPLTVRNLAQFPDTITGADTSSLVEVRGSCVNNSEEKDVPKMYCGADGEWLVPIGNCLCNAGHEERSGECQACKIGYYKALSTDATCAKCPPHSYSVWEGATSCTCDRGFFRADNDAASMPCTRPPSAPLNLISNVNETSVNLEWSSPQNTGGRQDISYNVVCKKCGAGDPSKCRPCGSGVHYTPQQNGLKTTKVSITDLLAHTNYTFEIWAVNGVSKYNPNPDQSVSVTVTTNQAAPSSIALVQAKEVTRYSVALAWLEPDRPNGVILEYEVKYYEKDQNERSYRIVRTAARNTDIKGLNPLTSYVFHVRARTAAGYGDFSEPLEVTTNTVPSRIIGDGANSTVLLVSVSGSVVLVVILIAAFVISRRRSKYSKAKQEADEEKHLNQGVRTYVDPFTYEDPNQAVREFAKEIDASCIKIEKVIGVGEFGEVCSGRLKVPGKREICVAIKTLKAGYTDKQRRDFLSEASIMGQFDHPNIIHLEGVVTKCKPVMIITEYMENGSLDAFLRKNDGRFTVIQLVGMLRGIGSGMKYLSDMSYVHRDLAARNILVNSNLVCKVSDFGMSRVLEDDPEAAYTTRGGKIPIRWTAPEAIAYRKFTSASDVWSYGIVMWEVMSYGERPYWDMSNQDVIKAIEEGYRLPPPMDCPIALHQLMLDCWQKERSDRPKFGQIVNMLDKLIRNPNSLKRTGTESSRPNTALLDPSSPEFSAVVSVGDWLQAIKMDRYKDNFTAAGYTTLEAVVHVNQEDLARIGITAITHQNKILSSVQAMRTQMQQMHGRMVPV

`C[C@@H]1CC[C@H]2C(C)(C)CCC[C@]2(C)c2c1oc1c(C=O)c(O)c(O)cc21` [LG-1, liphagal] was tested. Which inhibition at 10 µM (EPHA4) did it give?
Its inhibition at 10 µM is 2%.

And the inhibition at 10 µM (MAP2K7_Cascade)?
Its inhibition at 10 µM is 5.5%.
